Tests used:
[1] = test system: NCI-H226 tumor cells; assay: In vivo efficacy in a subcutaneous human lung cancer xenograft model (NCI-H226 mesothelioma); set-up: species or system Female BALB/c Nude Mice; details: 100 mg/kg, p.o., BID × 21 days
Procedure: The NCI-H226 tumor cells were maintained in vitro with RPMI-1640 medium supplemented with 10% fetal bovine serum at 37° C. in an atmosphere of 5% CO2 in air. The cells in exponential growth phase were harvested and the cell numbers were quantitated by hemocytometer and cell viability was quantified by Trypan Blue counting before tumor inoculation. Balb/c nude mouse were inoculated with subcutaneously in the right front flank regions with 1×10^7 of NCI-H226 tumor cells in 0.1 mL of PBS mixed with 0.1 ml of Matrigel (1:1) for tumor development. All animals were randomized based on the tumor sizes as well as body weights and randomly allocated to the different study groups (8 mice per group). The randomization started when the mean tumor size at the right rear flank region had reached approximately 172 mm^3. The date of randomization was denoted as Day 0.
Cpd. No. 084 was formulated in Vehicle 1 (PEG400 (40%)+PG (30%)+WFI (30%)) as a 10 mg/ml solution, and dosed orally, twice daily, using 10 μl/g (final dose is 100 mg/kg) for 21 days. Cpd. No. 001 was formulated in Vehicle 2 (PEG400 (65%)+PG (20%)+WFI (15%)) as a 10 mg/ml solution, and dosed orally, twice daily, using 10 μl/g (final dose is 100 mg/kg) for 21 days. After tumor cell inoculation, the animals were checked daily for morbidity and mortality. At the time of routine monitoring, the animals were checked for any effects of tumor growth and treatments on behavior such as mobility, food and water consumption, body weight gain/loss (body weight was measured at least two times per week), and any other abnormalities. Mortality and observed clinical signs were recorded for individual animals. Tumor volumes were measured at least two times weekly in two dimensions using a caliper, and the volume was expressed in mm^3 using the formula: V=(L×W×W)/2, where V is tumor volume, L is tumor length (the longest tumor dimension) and W is tumor width (the longest tumor dimension perpendicular to L).
Tumor growth inhibition (TGI) was used as an indicator of antitumor activities, and was calculated from the relative tumor volumes of the control and treatment groups due to the variance of tumor volumes among groups at Day 0. TGI (%)=(1-T/C)×100%; T/C=MTVt/MTVc, MTVt: mean tumor volume in the treatment groups at a specific measurement day, MTVc: mean tumor volume in the control group at a specific measurement day. Moreover, the difference of TGIs between control and treatment groups was analyzed at a measurement day when all or most of the mice in the control groups were alive. In addition, body weight changes over time in each group were used as an index to evaluate the tolerability of test drugs, and were calculated from the average percentage of body weight changes of each individual mouse relative to their initial body weight at randomization using the following formula: group BW %=mean of ((BWt−BW0)/BW0×100%), BWt: body weight at Day t, BW0: body weight at Day 0.
To compare relative tumor volumes of different groups at a pre-specified day, we first used Bartlett's test to check the assumption of homogeneity of variance across all groups. When the p-value of Bartlett's test is >0.05, we run one-way ANOVA to test overall equality of means across all groups. If the p-value of the one-way ANOVA is <0.05, we further perform post hoc testing by running Tukey's HSD (honest significant difference) tests for all pairwise comparisons, and Dunnett's tests for comparing each treatment group with the vehicle group. When the p-value of Bartlett's test is <0.05, we run Kruskal-Wallis test to test overall equality of medians among all groups. If the p-value of the Kruskal-Wallis test is <0.05, we further perform post hoc testing by running Conover's non-parametric test for all pairwise comparisons or for comparing each treatment group with the vehicle group, both with single-step p-value adjustment. All tests were two-sided unless otherwise specified, and p-values<0.05 were regarded as statistically significant. […]

[2] = test system: YAP/TAZ-TEAD transcription; assay: Reporter gene assay for measuring the inhibition of YAP/TAZ-TEAD transcription (TEAD-responsive element luciferase reporter in Hek293T cells); format: cell-based; details: Homo sapiens, HEK-293T, 24 h, Hek293T cells transiently transfected with TEAD-responsive element luciferase reporter; 24 hours incubation
How it was run: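 Readout is SteadyLite luciferase luminescence from a TEAD-responsive element reporter transiently transfected into Hek293T cells, exposed to compounds for 24 h at 37 °C/5% CO2. IC50 derived from percent inhibition, scaled between vehicle basal activity (0%) and positive control inhibitor (100%).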

[3] = test system: NCI-1H226; assay: Mesothelioma cell line proliferation assay, H226 (ATPlite); format: cell-based; details: Homo sapiens, NCI-H226, 144 h, 6 days with compound
Procedure: Mesothelioma cell lines, NCI-1H226 and NCI-1H2052 (all sourced from the ATCC cell culture collection) are plated in 96-well plates (Corning® 96 Well White Polystyrene Microplate clear flat bottom, white polystyrene (TC-Treated)), at 1500 cells/well in full medium (RPMI 1640 ATCC modification with L-glutamine, HEPES, Phenol Red, Sodium Pyruvate, High glucose, Low sodium bicarbonate and 10% fetal bovine serum). Cells are incubated overnight at 37° C. in an incubator with 5% C02. Then compounds, dissolved in DMSO, are added in dose-response. Cells are incubated with compound dilutions for another 6 days at 37° C. in an incubator with 5% C02. Cell viability is quantitated using the ATPlite kit (Perkin-Elmer) and the luminescence is read-out using an Envision instrument (Perkin-Elmer). The amount of relative light units produced using the ATPlite kit is used to calculated percent of inhibition.
The activities of some example compounds are depicted in the table below. The activity ranges A, B and C refer to EC50 values in the mesothelioma cell line proliferation assay as described as follows: “A”: EC50<1 μM; “B”: 1 μM s EC50≤10 μM and “C”: EC50≥10 μM; NT: not tested.

[4] = day 20, against the compound's own vehicle group

C=CC(=O)NCC1Cc2ccccc2N(c2ccc(C(F)(F)F)cc2)C1 (stereo not drawn) [compound 084, N-((1-(4-(trifluoromethyl)phenyl)-1,2,3,4-tetrahydroquinolin-3-yl)methyl)acrylamide]
anti-tumor activity in the xenograft mesothelioma model [1]: highly statistically significant and strong anti-tumor activity | Mean Tumor Volume (mm^3) on day 20 ([1]; day 20, 8 mice per group): 165.82 ± 15.42 (8) mm^3 | T/C (%) [1, 4]: 38.95% | TGI (%) [1, 4]: 61.05% | IC50 [2]: < 1000 nM | EC50 [3]: < 1000 nM
